Measured values: ChEMBL document CHEMBL3045599, “SYNTHESIS, ANOREXIGENIC ACTIVITY AND QSAR OF SUBSTITUTED ARYLOXYPROPANOLAMINES” (Med Chem Res, 2004)
Activity calls are given as the source filed them. No cut-off for these calls is given here.

Legend:
Mus musculus [1] = assay: Effect on CNS in Mus musculus Swiss (mouse) assessed as reversal of resperine-induced ptosis at 75 umol/kg, ip; assay type: ADME, organism-based, Central nervous system; conditions: in vivo
Mus musculus [2] = assay: Effect on CNS in Mus musculus Swiss (mouse) assessed as gross behavioural effects at 75 umol/kg, ip; assay type: ADME, organism-based, Central nervous system; conditions: in vivo
Mus musculus [3] = assay: Effect on CNS in Mus musculus Swiss (mouse) assessed as reversal of resperine-induced sedation at 75 umol/kg, ip; assay type: ADME, organism-based, Central nervous system; conditions: in vivo
Mus musculus [4] = assay: Anorexigenic activity in Mus musculus Swiss (mouse) at 75 umol/kg, ip measured for 15 min relative to control; assay type: functional
Mus musculus [5] = assay: Antidepressant activity in Mus musculus Swiss (mouse) at 75 umol/kg, ip; assay type: functional, organism-based

Row | Structure (SMILES) | Activity (Mus musculus [1]) | Activity (Mus musculus [2]) | Activity (Mus musculus [3]) | Activity (Mus musculus [4]) | Activity (Mus musculus [5])
1 | CN(CCC(Oc1ccc(C(F)(F)F)cc1)c1ccccc1)CC(O)COc1ccc(Cl)cc1 (stereo not drawn) | Non-toxic | Non-toxic | Non-toxic | 28% | inactive
2 | Cc1ccccc1OCC(O)CN(C)CCC(Oc1ccc(C(F)(F)F)cc1)c1ccccc1 (stereo not drawn) | Non-toxic | Non-toxic | Non-toxic | 60% | inactive
3 | CC(=O)Nc1ccc(OCC(O)CN(C)CCC(Oc2ccc(C(F)(F)F)cc2)c2ccccc2)cc1 (stereo not drawn) | Non-toxic | Non-toxic | Non-toxic | 60% | inactive
4 | CN(CCC(Oc1ccc(C(F)(F)F)cc1)c1ccccc1)CC(O)COc1ccc(C#N)cc1 (stereo not drawn) | Non-toxic | Non-toxic | Non-toxic | 72% | Active
5 | CN(CCC(Oc1ccc(C(F)(F)F)cc1)c1ccccc1)CC(O)COc1cccc(C(F)(F)F)c1 (stereo not drawn) | Non-toxic | Non-toxic | Non-toxic | 32% | inactive
6 | CCNc1ccc(OCC(O)CN(C)CCC(Oc2ccc(C(F)(F)F)cc2)c2ccccc2)cc1 (stereo not drawn) | Non-toxic | Non-toxic | Non-toxic | 60% | inactive
7 | CN(CCC(Oc1ccc(C(F)(F)F)cc1)c1ccccc1)CC(O)COc1ccccc1 (stereo not drawn) | Non-toxic | Non-toxic | Non-toxic | 52% | inactive
8 | CN(CCC(Oc1ccc(C(F)(F)F)cc1)c1ccccc1)CC(O)COc1ccc(Br)cc1 (stereo not drawn) | Non-toxic | Non-toxic | Non-toxic | 60% | inactive
9 | COc1ccccc1OCC(O)CN(C)CCC(Oc1ccc(C(F)(F)F)cc1)c1ccccc1 (stereo not drawn) | Non-toxic | Non-toxic | Non-toxic | 56% | inactive
10 | CC(=O)c1ccc(OCC(O)CN(C)CCC(Oc2ccc(C(F)(F)F)cc2)c2ccccc2)cc1 (stereo not drawn) | Non-toxic | Non-toxic | Non-toxic | 32% | inactive
11 | CN(CCC(Oc1ccc(C(F)(F)F)cc1)c1ccccc1)CC(O)COc1ccc2ccccc2c1 (stereo not drawn) | Non-toxic | Non-toxic | Non-toxic | 40% | inactive
12 | COc1ccc(OCC(O)CN(C)CCC(Oc2ccc(C(F)(F)F)cc2)c2ccccc2)cc1 (stereo not drawn) | Non-toxic | Non-toxic | Non-toxic | 52% | inactive
13 | CN(CCC(Oc1ccc(C(F)(F)F)cc1)c1ccccc1)CC(O)COc1ccc(C(F)(F)F)cc1 (stereo not drawn) | Non-toxic | Non-toxic | Non-toxic | 32% | inactive
14 | CCC(=O)c1ccc(OCC(O)CN(C)CCC(Oc2ccc(C(F)(F)F)cc2)c2ccccc2)cc1 (stereo not drawn) | Non-toxic | Non-toxic | Non-toxic | 36% | inactive
15 | CNCCC(Oc1ccc(C(F)(F)F)cc1)c1ccccc1 (stereo not drawn) [FLUOXETINE] | 100% | – | 100% | 72% | –
16 | CN(CCC(Oc1ccc(C(F)(F)F)cc1)c1ccccc1)CC(O)COc1ccc(C=O)cc1 (stereo not drawn) | Non-toxic | Non-toxic | Non-toxic | 40% | inactive
